Some test systems named below: 786-0 renal; ACHN renal; CCRF-CEM leukemia; HCT-116 colon; IGROV1 ovarian; MCF7 breast; NCI-H522 lung; OVCAR-4 ovarian; SNB-19 CNS; SW-620 colon; UACC-62 melanoma.
Common to all, as to experiment: inhibition of tumour cell growth, NCI panel, 48 h

The source of these data is PubChem BioAssay (NCI).

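Compound exposure: 48 hours, 5 concentrations, 96-well plates. The concentration for full growth arrest is given as TGI.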 Where only a bound is given, the exact number is not on record here.

In the case of `C#CCn1c(=O)c(Cl)cn(/C(=C/C(=O)OCC)C(=O)OCC)c1=O`, the TGI in the assay on 786-0 renal was 3.83 µM; in the assay with ACHN renal, 3.93 µM; in the assay with CCRF-CEM leukemia, 13.3 µM; with HCT-116 colon it was 14.4 µM; with IGROV1 ovarian, 35.1 µM; with MCF7 breast, 22.7 µM. The TGI in the assay with NCI-H522 lung was 12.6 µM; in the assay with OVCAR-4 ovarian, 38.8 µM; in the assay with SNB-19 CNS it was above 66.7 µM; in the assay with SW-620 colon, 5.46 µM; with UACC-62 melanoma, 29.8 µM.
Turning to `O=[N+]([O-])c1c2nc3n(c2cc2c1nc1n2CCC1)CCC3`, the TGI in the assay on 786-0 renal, with ACHN renal, in the assay on CCRF-CEM leukemia, with HCT-116 colon, in the assay on IGROV1 ovarian and with MCF7 breast was above 100 µM each time. In addition, the TGI with NCI-H522 lung, in the assay on OVCAR-4 ovarian, with SNB-19 CNS, with SW-620 colon and with UACC-62 melanoma was above 100 µM throughout.
For `CCOC(=O)Cn1c(=O)c2cc(-c3ccccc3)cc3c(Cl)nc4c(OC)c(OC)cc1c4c32`, the TGI in the assay with 786-0 renal is above 100 µM; in the assay with ACHN renal it was above 65.5 µM; in the assay with CCRF-CEM leukemia, above 56.9 µM; with HCT-116 colon, 29.1 µM; with IGROV1 ovarian it was 27.5 µM; with MCF7 breast, 22.7 µM. The TGI is 39.4 µM in the assay with NCI-H522 lung; above 77.1 µM in the assay with OVCAR-4 ovarian; 55 µM in the assay on SNB-19 CNS; above 61.2 µM with SW-620 colon; 30.4 µM in the assay with UACC-62 melanoma.
With `NC1CC(=O)c2sccc21` (configuration not stated), the TGI with 786-0 renal, in the assay on ACHN renal, with CCRF-CEM leukemia, in the assay on HCT-116 colon, with IGROV1 ovarian and with MCF7 breast was above 100 µM in each case. Further, the TGI in the assay on NCI-H522 lung, with OVCAR-4 ovarian, in the assay with SNB-19 CNS, in the assay with SW-620 colon and in the assay on UACC-62 melanoma was above 100 µM each time.
`CC(=O)NC(Cc1ccc(OP(=O)(OCc2ccc([N+](=O)[O-])o2)N(C)CCCCCl)cc1)C(=O)NC(C)c1ccc(OCC2CCCCC2)c(C(N)=O)c1` (configuration not stated): the TGI was 12.4 µM in the assay on 786-0 renal; 33.4 µM in the assay with ACHN renal; 10.1 µM with CCRF-CEM leukemia; 5.3 µM in the assay on HCT-116 colon; 7.01 µM with IGROV1 ovarian; 5.23 µM in the assay on MCF7 breast. Moreover, the TGI amounted to 12 µM in the assay with NCI-H522 lung; 11.9 µM in the assay on OVCAR-4 ovarian; 14.9 µM with SNB-19 CNS; 14.2 µM with SW-620 colon; 5.34 µM with UACC-62 melanoma.
For the molecule `CC(=O)O[C@H]1C[C@H]2C(=S)Nc3ccccc3C(=S)N2C1`, the TGI in the assay on 786-0 renal, in the assay with ACHN renal, with CCRF-CEM leukemia, in the assay with HCT-116 colon, in the assay with IGROV1 ovarian and with MCF7 breast was above 100 µM throughout. Further, the TGI in the assay on NCI-H522 lung, with OVCAR-4 ovarian, with SNB-19 CNS, with SW-620 colon and in the assay with UACC-62 melanoma was above 100 µM throughout.
On to `Cc1ccc(S(=O)(=O)NC(=O)NC(Cc2ccc(O)c(O)c2)C(=O)O)cc1` (configuration not stated), for which the TGI in the assay on 786-0 renal is 34.6 µM; in the assay with ACHN renal, above 100 µM; in the assay on CCRF-CEM leukemia, 63 µM; with HCT-116 colon it was above 100 µM; in the assay with IGROV1 ovarian it was above 100 µM; with MCF7 breast, above 100 µM. Moreover, the TGI in the assay on NCI-H522 lung is above 100 µM; with OVCAR-4 ovarian, above 100 µM; in the assay with SNB-19 CNS, above 100 µM; in the assay with SW-620 colon it was 61.9 µM; in the assay on UACC-62 melanoma, above 100 µM.
Turning to `Nc1ccc(Oc2ccc(C34CC5CC6C3CC3CC4C(C5)C6(c4ccc(Oc5ccc(N)c(O)c5)cc4)C3)cc2)cc1O`, the TGI in the assay on 786-0 renal was 14.9 µM; in the assay with ACHN renal it was 14.3 µM; with CCRF-CEM leukemia, 40.3 µM; with HCT-116 colon it was 11.1 µM; with IGROV1 ovarian, 22.6 µM; in the assay on MCF7 breast, above 42.3 µM. Moreover, the TGI with NCI-H522 lung was 5.73 µM; with OVCAR-4 ovarian it was 22.2 µM; in the assay with SNB-19 CNS, 14.7 µM; with SW-620 colon, above 54.8 µM; in the assay on UACC-62 melanoma, 26.3 µM.
With `Nn1c(Cc2ccccc2)n[nH]c1=O`, the TGI in the assay with 786-0 renal, in the assay on ACHN renal, in the assay with CCRF-CEM leukemia, with HCT-116 colon, in the assay with IGROV1 ovarian and in the assay with MCF7 breast was above 100 µM throughout. For the same molecule, the TGI in the assay with NCI-H522 lung, in the assay on OVCAR-4 ovarian, with SNB-19 CNS, in the assay on SW-620 colon and in the assay with UACC-62 melanoma was above 100 µM in each case.
As to `Cc1ccc(C(=O)Nc2ccc(S(=O)(=O)O)c3cc(S(=O)(=O)O)cc(S(=O)(=O)O)c23)cc1NC(=O)c1cccc(NC(=O)Nc2cccc(C(=O)Nc3cc(C(=O)Nc4ccc(S(=O)(=O)O)c5cc(S(=O)(=O)O)cc(S(=O)(=O)O)c45)ccc3C)c2)c1` (tested in a mixture with another compound), the TGI in the assay on 786-0 renal, in the assay with ACHN renal, with CCRF-CEM leukemia, in the assay on HCT-116 colon, in the assay with IGROV1 ovarian and in the assay with MCF7 breast was above 50 µM throughout. Also, the TGI in the assay on NCI-H522 lung, with OVCAR-4 ovarian, in the assay on SNB-19 CNS, with SW-620 colon and in the assay with UACC-62 melanoma was above 50 µM throughout.
With `CCCCCCCCCCCCCCCCCCOCC(COP(=O)([O-])OCC[N+](C)(C)C)OC` (configuration not stated), the TGI was above 71.7 µM in the assay with 786-0 renal; above 100 µM in the assay with ACHN renal; 28 µM with CCRF-CEM leukemia; 43.5 µM in the assay on HCT-116 colon; 18.7 µM in the assay with IGROV1 ovarian; above 54.3 µM with MCF7 breast. Further, the TGI in the assay with NCI-H522 lung was 32.7 µM; in the assay on OVCAR-4 ovarian it was above 52.6 µM; in the assay on SNB-19 CNS it was 47.1 µM; in the assay with SW-620 colon, 47.9 µM; in the assay with UACC-62 melanoma it was 47.1 µM.
With `C=C(C(=O)OC)c1cc2ccccc2n1S(=O)(=O)c1ccccc1`, the TGI was above 33.5 µM with 786-0 renal; 5.89 µM in the assay with ACHN renal; 4.18 µM with CCRF-CEM leukemia; above 34.4 µM with HCT-116 colon; 4.21 µM in the assay with IGROV1 ovarian; 8.11 µM in the assay with MCF7 breast. Moreover, the TGI with NCI-H522 lung worked out at 2.54 µM; with OVCAR-4 ovarian it was 11.3 µM; in the assay on SNB-19 CNS it was 34 µM; in the assay with SW-620 colon, 4.63 µM; in the assay with UACC-62 melanoma it was 15 µM.
Take `Oc1cccc(-c2cn3cc(C(F)(F)F)ccc3n2)c1`: the TGI in the assay on 786-0 renal was above 100 µM; in the assay on ACHN renal it was above 100 µM; in the assay with CCRF-CEM leukemia it was 77.5 µM; in the assay on HCT-116 colon it was above 100 µM; in the assay on IGROV1 ovarian, above 100 µM; in the assay on MCF7 breast it was above 100 µM. The TGI is 35.4 µM in the assay on NCI-H522 lung; above 100 µM in the assay on OVCAR-4 ovarian; above 100 µM in the assay with SNB-19 CNS; above 100 µM in the assay with SW-620 colon; above 100 µM in the assay with UACC-62 melanoma.
Turning to `c1ccc2nc(CCC3CCCCN3)ccc2c1` (configuration not stated), the TGI in the assay on 786-0 renal, with ACHN renal, with CCRF-CEM leukemia, in the assay on HCT-116 colon, in the assay with IGROV1 ovarian and in the assay with MCF7 breast was above 100 µM throughout. Besides, the TGI in the assay with NCI-H522 lung, in the assay with OVCAR-4 ovarian, in the assay with SNB-19 CNS, with SW-620 colon and with UACC-62 melanoma was above 100 µM each time.
In the case of `CC(C)(C)c1ccc(C(C)(C)C)c(N2C(=O)C3ON=C(c4ccc([N+](=O)[O-])cc4)C3C2=O)c1` (configuration not stated), the TGI in the assay with 786-0 renal was 9.71 µM; in the assay on ACHN renal, above 25 µM; in the assay on CCRF-CEM leukemia it was above 25 µM; with HCT-116 colon, above 25 µM; with IGROV1 ovarian it was 19.4 µM; with MCF7 breast it was above 25 µM. In addition, the TGI in the assay with NCI-H522 lung, with OVCAR-4 ovarian, in the assay on SNB-19 CNS, in the assay on SW-620 colon and in the assay on UACC-62 melanoma was above 25 µM each time.
Regarding `C/C(=N\N=C(N)N)C(CN(C)C)C(c1ccccc1)c1c(O)c2ccccc2oc1=O` (configuration not stated), the TGI in the assay with 786-0 renal, in the assay on ACHN renal, in the assay with CCRF-CEM leukemia, in the assay with HCT-116 colon, with IGROV1 ovarian and in the assay with MCF7 breast was above 100 µM in each case. Besides, the TGI with NCI-H522 lung, with OVCAR-4 ovarian, in the assay on SNB-19 CNS, with SW-620 colon and with UACC-62 melanoma was above 100 µM in each case.
For the molecule `CC12CCC(C(Nc3ccccn3)C1=O)C2(C)C` (configuration not stated), the TGI in the assay with 786-0 renal, with ACHN renal, with CCRF-CEM leukemia, in the assay with HCT-116 colon, in the assay with IGROV1 ovarian and in the assay on MCF7 breast was above 100 µM each time. Also, the TGI with NCI-H522 lung, in the assay on OVCAR-4 ovarian, in the assay with SNB-19 CNS, with SW-620 colon and in the assay with UACC-62 melanoma was above 100 µM throughout.
